The numbers were not newly measured in patent US6323203A, “Composition and method for treating diabetes” (Beyer; Camille F., priority 2000, dated 2001), which cites them from elsewhere.

Series [1] relates to nicotinic acid vasomotor and antilipolytic effect. The following applies: cited from earlier work; for effect on vasomotor and antilipolytic effect of nicotinic acid: prior administration of the prostaglandin synthesis inhibitor.
The conditions of series [2]: in vivo; cited from earlier work.
The conditions of series [3]: oral glucose tolerance test; cited from earlier work.

As for `CC(=O)Oc1ccccc1C(=O)O` [aspirin], the “effect on vasomotor and antilipolytic effect of nicotinic acid” value in series [1] is given as “abolish the vasomotor, but not the antilipolytic effect of nicotinic acid”.

As for `NS(=O)(=O)c1cc2c(cc1Cl)NCNS2(=O)=O` [hydrochlorothiazide], in series [2], the effect on potassium entry was “kaliuresis”. Further, in series [3], the “effect on serum glucose and insulin” value was “increased serum glucose and insulin concentrations”.

For `COc1ccc2c(c1)c(CC(=O)O)c(C)n2C(=O)c1ccc(Cl)cc1` [indomethacin], the “effect on vasomotor and antilipolytic effect of nicotinic acid” value in series [1] is given as “abolish the vasomotor, but not the antilipolytic effect of nicotinic acid”.

`O=C(O)c1cccnc1` [nicotinic acid]: in series [1] (Molnar 1964), the use in diabetics entry is given as “contraindicated for diabetics”. For the same molecule, the “effect on triglyceride hydrolysis to FFA and glycerol” value in series [1] (in vivo) is “inhibits triglyceride hydrolysis to FFA and glycerol”. In addition, the “cutaneous vasomotor reaction of nicotinic acid, consequence in patient care” value in series [1] (nicotinic acid prescribed in patient care) is listed as “sufficiently undesirable as to be the principal cause for lack of compliance”. In series [1] (nicotinic acid), the “effect on blush area” value is reported as “transiently stimulate”; the “effect on plasma concentrations of nonesterified fatty acids” value is given as “reduce”; the “onset of cutaneous reaction relative to peak serum concentration” value was “the onset preceded peak serum PZA concentrations, as is the case also for the cutaneous reactions associated with nicotinic acid”.
